Results: patent US11827543B2, “Method for continuous supply of superoxide-containing peracetate oxidant solution” (Clean Chemistry, Inc., priority 2014, dated 2023)

Columns and labels:
bacteria = assay: ATP concentration (LuminUltra metabolic ATP measurement) in oxidant-treated water; type: cell-based
[1] = tested on: acid producing bacteria (APB); assay: Acid producing bacteria serial dilution culture (Intertek APB media); type: cell-based; conditions: produced water, Example 17, 30 min contact, no grow back
Description: The water's color rapidly turned orange and the ORP increased to about 700 mV vs SHE. During the first 5 to 10 minutes of slow mixing there was some floc formation. After 20 minutes stirring was ceased and the flocculated solids were allowed to settle, however the water remained hazy orange. […] The ATP concentration was reduced by about 93% from the untreated water concentration and the bioassay results indicated at least 4 log reductions in acid producing and sulfate reducing bacteria relative to the untreated water's ATP concentration (approximately 1.8×10^6 microbial equivalents per mL).
Water parameters were measured by a variety of methods. The pH was measured using a high sodium electrode (Oakton model 35805-05) with three point calibration and automatic temperature correction. The ORP (oxidative-reductive potential) of solutions was measured using an Oakton model 35805-15 ORP probe calibrated to the standard hydrogen electrode (SHE) using Thermo/Orion ORP standard 967901. Sodium ion concentration was measured using a Cole-Parmer ion selective electrode, EW-27504-30, with two point calibration of a sodium standard solution of NaCl. Chloride ion concentration was measured using a Cole-Parmer ion selective electrode, SC-27504-08, with two point calibration of a chloride standard solution of NaCl. All measurements using HACH methods were measured using a HACH DR900 colorimeter. Calcium, magnesium and total hardness concentrations were measured using HACH method 8030. Sulfate concentration was measured using HACH method 10248. Aluminum concentration was measured using HACH method 8012. Iron concentration was measured using HACH method 10249 modified with a longer reaction time to minimize interferences from organic impurities. Total suspended solids (TSS) concentration was measured using HACH method 8006 modified for smaller volumes. Turbidity was measured using HACH method 8237. […] Acid producing bacteria (ABP) and sulfate reducing bacteria (SRB) cell culture concentrations were measured with standard 1 mL serial dilutions using Intertek APB and SRB culture media, 1% salinity.

[2] = Half life and attenuation of oxidant solution in clean water; type: physicochemical
Description: Measurement of Sodium Peracetate Concentration: Measurement of sodium peracetate concentration is conducted by using a peroxide iodometric titration procedure from HACH. A known, volumetric aliquot of the peracetate-containing solution is diluted with a volume of distilled water where the total volume is convenient for titration between about 5 and 25 mL in a small glass beaker or flask. The diluted peracetate solution is stirred and 1 mL of ammonium molybdate reagent (HACH reagent 1933-32) is added. Sulfuric acid in the reagent converts the peracetate to peracetic acid. The contents of one Sulfite 1 Reagent packet (HACH reagent 2203-99) is added to the prepared solution and stirred for 5 minutes. The purple color that develops is titrated to a colorless endpoint with a standard sodium thiosulfate solution (for example, 0.0250 N sodium thiosulfate solution). The peroxide concentration is calculated based on the volume of the aliquot of peracetate-containing solution, the volume and concentration of sodium thiosulfate solution, two electron equivalents consumed for each molecule of peroxide and the molecular weight of the peroxide being measured.
Example 8: Half Life and Attenuation of Oxidant Solution: The minimum attenuation rate or degradation rate of the sodium peracetate oxidant solution was measured experimentally in clean water conditions. A sodium peracetate oxidant solution containing an initial concentration of 7.5% (wt/vol) sodium peracetate with an initial pH of about 10.1 was prepared by dissolving 0.34 g of sodium hydroxide (98%) in 10.0 mL of 2.85% wt/vol hydrogen peroxide (topical solution) in a 50 mL beaker. Then 1.22 g of triacetin (99%) was combined and the mixture rapidly stirred for 1-2 minutes at room temperature. […]
The sodium peracetate concentration was measured over time using the method described in Example 4. Concentrations were accurate to about ±2.4% of the values measured. The pH was measured using a high sodium electrode (Oakton model 35805-05) with three point calibration and automatic temperature correction.

[3] = ORP (oxidative-reductive potential) measurement of solutions and treated water; type: physicochemical; conditions: for ORP (mV vs SHE): early flowback water, Example 19, 1.7 mmol/L oxidant; for ORP (mV vs SHE), maximum: produced water
Description: Example 9: Hydrogen Peroxide Residual Concentration and interference. A sodium peracetate oxidant solution was produced according to the procedure in Example 4 and diluted to 2800 mg/L (28.5 mmol/L) with either distilled water, for clean water conditions, or tap water containing about 0.18 mg/L copper, which served as an activation catalyst. Some samples were spiked with 30 or 60 mg/L (0.88 or 1.76 mmol/L, respectively) hydrogen peroxide from a 1000 mg/L stock solution. […] The temperature of the samples was maintained at 25±2° C. with a heated water bath. The ORP response was monitored over time to observe the impact of adding low concentrations of hydrogen peroxide. The pH was measured using a high sodium electrode (Oakton model 35805-05) with three point calibration and automatic temperature correction. The ORP (oxidative-reductive potential) of solutions was measured using an Oakton model 35805-15 ORP probe calibrated to the standard hydrogen electrode (SHE) using Thermo/Orion ORP standard 967901.
Water parameters were measured by a variety of methods. The pH was measured using a high sodium electrode (Oakton model 35805-05) with three point calibration and automatic temperature correction. The ORP (oxidative-reductive potential) of solutions was measured using an Oakton model 35805-15 ORP probe calibrated to the standard hydrogen electrode (SHE) using Thermo/Orion ORP standard 967901. Sodium ion concentration was measured using a Cole-Parmer ion selective electrode, EW-27504-30, with two point calibration of a sodium standard solution of NaCl. Chloride ion concentration was measured using a Cole-Parmer ion selective electrode, SC-27504-08, with two point calibration of a chloride standard solution of NaCl. All measurements using HACH methods were measured using a HACH DR900 colorimeter. Calcium, magnesium and total hardness concentrations were measured using HACH method 8030. Sulfate concentration was measured using HACH method 10248. Aluminum concentration was measured using HACH method 8012. Iron concentration was measured using HACH method 10249 modified with a longer reaction time to minimize interferences from organic impurities. Total suspended solids (TSS) concentration was measured using HACH method 8006 modified for smaller volumes. Turbidity was measured using HACH method 8237. ATP (adenosine triphosphate) concentration was measured using the LuminUltra 2nd Generation metabolic ATP measurement technology with the LuminUltra Quench Gone-Organic Modified sampling method, a PhotonMaster Luminometer and LumiCalc software. Acid producing bacteria (ABP) and sulfate reducing bacteria (SRB) cell culture concentrations were measured with standard 1 mL serial dilutions using Intertek APB and SRB culture media, 1% salinity.

[4] = Jar test water parameters (hardness, calcium, magnesium, chloride, sodium, aluminum, iron, TSS, turbidity); conditions: produced water, Example 17; for Magnesium (mg/L as CaCO3): untreated 170; for Calcium (mg/L as CaCO3): untreated 1080; for Hardness (mg/L as CaCO3): untreated 1250
Description: The water sample was thoroughly mixed and 500 mL dispensed into 1 L beakers to conduct tests using a Phipps and Bird programmable jar tester. The jar tester was programmed for a rapid mix of high shear force at 295 rpm impeller speed for 1.25 minutes, followed by a low shear impeller speed of 25 rpm for 10 minutes to promote coalescence and floc formation. All tests were conducted at room temperature, 20-25° C. The 500 mL water samples were dosed with varying amounts of sodium peracetate oxidant solution during the rapid mix from an oxidant solution that was 2.1% wt/vol sodium peracetate (1.6% wt/vol measured as PAA). Also during the rapid mix the jar samples were dosed with 0.5 to 1 mg/L of an anionic polymer dispersion as a coalescence and floc aid.
Example 17: Oxidative clarification of suspended solids and metals. A produced water sample originating from the Denver-Julesburg basin formation in CO, USA contained suspended and dissolved solids, bacteria and up to about 2% salinity. The water sample was thoroughly mixed and 500 mL dispensed into 1 L beakers to conduct tests using a Phipps and Bird programmable jar tester. The jar tester was programmed for a rapid mix of high shear force at 295 rpm impeller speed for 1.25 minutes followed by a low shear impeller speed of 25 rpm for 20 minutes to promote floc formation and allow for pH and ORP monitoring prior to settling of solids. All tests were conducted at room temperature, 18-21° C. The 500 mL water samples were dosed with varying amounts of sodium peracetate oxidant solution during the rapid mix from an oxidant solution that was 2.2% wt/vol sodium peracetate (1.7% wt/vol measured as PAA). In some cases, during the rapid mix the jar samples were dosed with up to 5 mg/L of an anionic polymer dispersion as a floc aid.

[5] = produced water, Example 18, 0.30 mmol/L oxidant
[6] = Piceance produced water, pH 7.00, 22 °C, 500 mg/L initial dose

## CC(=O)O[O-].[Na+] [sodium peracetate oxidant, sodium peracetate]
bacteria; early flowback water, Example 19, 1.7 mmol/L, ATP at 10, 30 and 60 minutes contact time
  rate of reduction of ATP concentration: The sodium peracetate oxidant treated flowback water had a slightly greater rate of reduction of ATP concentration than chlorine dioxide.
bacteria; produced water, Example 17, 29 mg/L
  ATP reduction at 30 min CT: 99.0%
bacteria; produced water, Example 17, 29 mg/L plus 5 mg/L floc aid
  ATP reduction at 30 min CT: 99.6%
bacteria; produced water, Example 17, 29 mg/L plus 5 mg/L floc aid, listed as Sodium Peracetate Oxidant
  ATP reduction at 30 min CT: 99.6%
bacteria; produced water, Example 17, 29 mg/L plus 5 mg/L floc aid, untreated 135
  ATP (pg/mL), at 30 min CT: 0.6 pg/mL
bacteria; produced water, Example 17, 29 mg/L, listed as Sodium Peracetate Oxidant
  ATP reduction at 30 min CT: 99.0%
bacteria; produced water, Example 17, 29 mg/L, untreated 135
  ATP (pg/mL), at 30 min CT: 1.4 pg/mL
bacteria; produced water, Example 17, 52 mg/L
  ATP reduction at 30 min CT: 99.3%
bacteria; produced water, Example 17, 52 mg/L, listed as Sodium Peracetate Oxidant
  ATP reduction at 30 min CT: 99.3%
bacteria; produced water, Example 17, 52 mg/L, untreated 135
  ATP (pg/mL), at 30 min CT: 0.9 pg/mL
bacteria; [5]
  ATP (pg/mL), at 30 min CT: 1.4 pg/mL
  ATP reduction at 30 min CT: 99.0%
bacteria; produced water, Example 18, 0.30 mmol/L oxidant, untreated 135
  ATP (pg/mL), at 15 min CT: 4.1 pg/mL
[1]; 29 mg/L plus 5 mg/L floc aid
  APB (cells/mL and log reduction): 5 log (no grow
[1]; 29 mg/L, untreated >>10,000 cells/mL
  APB (cells/mL and log reduction): 5 log (no grow
[1]; 52 mg/L
  APB (cells/mL and log reduction): 5 log (no grow
[2]; 7.5% (wt/vol) solution, 25 °C, clean water, initial pH 10.1
  half-life: 1.33 to 1.42 h
[2]; 7.5% solution, 25 °C, at 265 min, initial pH 10.1
  final pH of solution: 7.3
[2]; within about 6 days' time
  concentration of oxidant: less than 5 mg/L
[3]; Piceance produced water, pH 7.00, 22 °C, 100 mg/L initial dose
  ORP, rapid initial increase: ~800 mV vs SHE
[3]; Piceance produced water, pH 7.00, 22 °C, 100 mg/L initial dose, after 120 minutes
  ORP after decline: about 470 mV
[3]; [6]
  ORP, later level: about 1040 mV vs SHE
  ORP, rapid initial increase: about 890 mV vs SHE
[3]; Piceance produced water, first 26 mg/L dose of sequential dosing
  ORP: more than 800 mV vs SHE
[3]; Piceance produced water, single dose 78 mg/L (60 mg/L as PAA)
  ORP maximum: 870 mV vs SHE
[3]; Piceance produced water, single dose 78 mg/L, in less than 60 minutes
  ORP: below 600 mV vs SHE
[3]; contact time 3 minutes
  ORP (mV vs SHE): 701 mV vs SHE
[3]; contact time 13 minutes
  ORP (mV vs SHE): 581 mV vs SHE
[3]; contact time 35 minutes
  ORP (mV vs SHE): 446 mV vs SHE
[3]; contact time 90 minutes
  ORP (mV vs SHE): 420 mV vs SHE
[3]; frac on the fly make-up water, about 15 minute contact time
  ORP of water drawn from the frac tanks: less than 500 mV
[3]; Example 17, 29 mg/L
  ORP (mV vs SHE), maximum: over 700 mV vs SHE
[3]; Example 17, 29 mg/L plus 5 mg/L floc aid
  ORP (mV vs SHE), maximum: over 700 mV vs SHE
[3]; Example 17, 29 mg/L plus 5 mg/L floc aid, listed as Sodium Peracetate Oxidant
  ORP (mV vs SHE), maximum: 770 mV vs SHE
[3]; Example 17, 29 mg/L, listed as Sodium Peracetate Oxidant
  ORP (mV vs SHE), maximum: 766 mV vs SHE
[3]; Example 17, 52 mg/L
  ORP (mV vs SHE), maximum: over 800 mV vs SHE
[3]; Example 17, 52 mg/L, listed as Sodium Peracetate Oxidant
  ORP (mV vs SHE), maximum: 809 mV vs SHE
[3]; Example 18, 0.30 mmol/L oxidant
  ORP (mV vs SHE), maximum: 766 mV vs SHE
[4]; 29 mg/L plus 5 mg/L floc aid
  Magnesium (mg/L as CaCO3): 200 mg/L as CaCO3
  Calcium (mg/L as CaCO3): 940 mg/L as CaCO3
  Hardness (mg/L as CaCO3): 1140 mg/L as CaCO3
[4]; 52 mg/L
  Magnesium (mg/L as CaCO3): 200 mg/L as CaCO3
  Calcium (mg/L as CaCO3): 1020 mg/L as CaCO3
  Hardness (mg/L as CaCO3): 1220 mg/L as CaCO3
